Source: patent US20060251703A1, “Composition comprising an edible acid or its acidic salt and the use thereof” (priority 2003, published 2006)
Where a name gives a salt, the structure may show the parent alone.

Experiments:
[1] = pH of saliva after ingesting citric acid; type: in vivo, human; details: 700 mg citric acid ingested
Procedure: Saliva is a kind of humors and, normally, has the pH of around 6.8. For the purpose of reference, to test the pH of the saliva of a person was carried out who had brushed before testing and ingesting 700 mg of citric acid. […]

[2] = tested on: mouse's leaching cell solution (abdominal cavity cells); assay: Drug depressing effect on histamine leaching when treated with 48/80 compound; type: cell-based; details: testing drug 100(mg/ml); for inhibition at 100000 µg/mL: Mus musculus, read-out: Depression rate (%); for inhibition at 100000 µg/mL / Depression rate (%): 48/80 compound-induced histamine release; for Histamine Releasing rate (%): 48/80 compound, control 90.5, blank 9.0
Procedure: This is a comparative testing of drug depressing effect on the amount of leaching histamines when is treated with 48/80 (Sigma, St. MO, USA) compound.
(1). Preparation of leaching cell solution from mouse body.
A mouse is killed and bloodletting. Then 10 ml of Locke's solution containing 0.1% bovine serum protein is injected into its abdominal cavity. After abdominal cavity being light massaged, the cavity is cut and the Locke's solution is removed. Cavity is washed with another 5 ml of Locke's solution, and this washed solution is added to the late one. This combined solution is centrifuged at 600 rpm for 5 minutes. The sediments are washed with 5 ml of cool Locke's solution. Adding 3 ml of cold Locke's solution to the washed sediments, then a leached cell solution of abdominal cavity is obtained. The composition of Locke's solution is: NaCL […], KCL 0.2%, CaCL2 0.15%, glucose 1.0%, in w/v, and the rest distillated water.
(2). Drug depressing effect on the amount of leaching histamines when treated with 48/80 compound.
Each testing compound listed in the table 1 is dissolved in a Ringer's solution containing 1% NaHCO3, and then diluted with Locke's solution to the indicated concentration. 1.0 ml of each of those solutions in last term is mixed with 0.3 ml of mouse's leaching cell solution and 0.5 ml of Locke's solution. This mixture is cultivated at 37° C. for 5 minutes. Then adding 0.2 ml of Locke's solution of 48/80 compound (1 mg/100 ml) and cultivated at 37° C. for 10 minutes. Then the reaction is stopped by cooling, and centrifuged at 2,500 rpm for 10 minutes. 1.7 ml of decanted solution and 0.3 ml of sediments are obtained. 0.1 ml of water and 0.2 ml of 100% trichloroacetic acid are added to the decanted solution. 1.5 ml of Locke's solution and 0.2 ml of 100% trichloroacetic acid are added to the sediments washed solution. They are cultivated at room temperature for 30 minutes. After cultivation, the mixtures are centrifuged at 3,000 rpm for 15 minutes, respectively. 0.35 ml of each of the former two solutions is sampled. In each sample, 1.65 ml of water, 0.4 ml of 1N NaOH and 0.1 ml of 0.5% OPT (o-phthalic aldehyde) in methanol are added and cultivated at room temperature for 4 minutes. The reaction is stopped by adding 0.2 ml of 2M citric acid. And finally, determine the amount of released histamines in the tested solution by fluorescence method. By the analysis, results of the depression rate of histamines could be calculated.
Locke's solution is instead of each drug in control group, and instead of both drug and 48/80 compound solution in blank group. The histamine releasing rate (A) can be calculated by following equation. […] Where (Hs) is the total amount of histamine in the decanted solution, and (Hr) is the total amount of histamine in the sediment. (A)=[(Hs)/{(Hs)+(Hr)}]×100%. Then the depression rate is: =100−[(A−A in blank group)/(A−A in control group)]×100%.

[3] = tested on: oxazolone-coated mouse ear; assay: Anti-delayed type allergy reaction (oxazolone ear inflammation); type: in vivo; details: 1 mg/ear coated, ears weighed after 24 hr; for inhibition in vivo at 1 mg/ear: Mus musculus, topical, read-out: Depression rate (%)
Procedure: The weights of testing mice are ranging from 20 g to 30 g. They are coated with 0.1 ml of oxazolone alcohol solution (0.5 w/v %) on the hair cleaned part of abdomen. After five days, each of the listed drugs is dissolved in oxazolone acetone solution (0.5 w/v %), and 10 μl each of the solutions is token by micro pipette to coat on both sides of the right ear. After 24 hr, the mouse is killed by ether and punched a circle area of a diameter of 5.5 mm on both right and left ears in corresponding part by a puncher machine (portions of drug coated and the blank). The punched portions are weighed and the inflammation rates calculated. The control group are coated only with the oxazolone acetone solution (0.5 w/v %). The inflammation depressing rates of each drug are calculated by following equation: Inflammation depressing rate(%)=[(weight of drug coated right ear)−(weight of non-drug-coated left ear)]×100%/(weight of non-drug-coated left ear)

xanthine oxidase = assay: Inhibition of xanthine oxidase; type: biochemical; details: xanthine oxidase 0.01 u/ml, xanthine 5×10^−5M, pH=7.4, UV 295 nm; read-out: IC50 (concentration for depression of 50% activity of oxidase)
Chain of xanthine oxidase (P47989 whole entry, species assumed): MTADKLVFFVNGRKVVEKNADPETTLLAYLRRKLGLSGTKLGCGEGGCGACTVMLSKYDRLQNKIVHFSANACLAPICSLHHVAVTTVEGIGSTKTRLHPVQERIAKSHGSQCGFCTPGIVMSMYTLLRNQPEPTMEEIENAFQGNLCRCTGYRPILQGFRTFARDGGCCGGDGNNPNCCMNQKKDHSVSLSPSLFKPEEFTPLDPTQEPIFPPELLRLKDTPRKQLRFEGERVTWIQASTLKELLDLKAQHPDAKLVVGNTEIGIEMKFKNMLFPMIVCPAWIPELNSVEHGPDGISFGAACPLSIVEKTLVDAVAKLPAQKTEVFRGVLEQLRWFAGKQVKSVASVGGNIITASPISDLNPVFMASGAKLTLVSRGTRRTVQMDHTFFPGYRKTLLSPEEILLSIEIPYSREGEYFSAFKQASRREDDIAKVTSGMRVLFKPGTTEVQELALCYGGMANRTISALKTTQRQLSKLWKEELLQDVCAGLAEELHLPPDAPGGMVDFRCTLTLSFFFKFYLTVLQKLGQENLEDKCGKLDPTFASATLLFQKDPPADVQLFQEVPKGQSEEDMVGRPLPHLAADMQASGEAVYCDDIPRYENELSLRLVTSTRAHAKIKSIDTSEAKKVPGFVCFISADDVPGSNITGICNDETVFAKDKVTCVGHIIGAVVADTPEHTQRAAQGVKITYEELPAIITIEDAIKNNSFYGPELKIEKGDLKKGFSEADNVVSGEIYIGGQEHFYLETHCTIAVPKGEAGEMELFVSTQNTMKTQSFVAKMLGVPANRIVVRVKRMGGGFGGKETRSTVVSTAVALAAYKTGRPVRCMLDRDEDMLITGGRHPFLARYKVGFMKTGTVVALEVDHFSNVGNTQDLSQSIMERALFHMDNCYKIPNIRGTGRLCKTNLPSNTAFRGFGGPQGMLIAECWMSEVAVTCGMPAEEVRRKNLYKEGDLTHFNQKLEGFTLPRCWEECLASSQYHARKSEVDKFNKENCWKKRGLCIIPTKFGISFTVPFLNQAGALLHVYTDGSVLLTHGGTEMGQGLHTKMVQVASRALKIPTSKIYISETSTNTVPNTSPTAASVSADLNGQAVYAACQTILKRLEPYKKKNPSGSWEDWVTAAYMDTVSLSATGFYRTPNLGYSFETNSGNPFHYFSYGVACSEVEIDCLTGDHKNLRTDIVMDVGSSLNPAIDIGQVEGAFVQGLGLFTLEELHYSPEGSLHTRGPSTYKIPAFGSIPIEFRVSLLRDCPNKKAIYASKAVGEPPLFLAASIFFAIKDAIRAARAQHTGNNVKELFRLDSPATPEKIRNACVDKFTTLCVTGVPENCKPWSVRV
Procedure: The production process of peroxide free radical can be tested by Xanthine oxidase substrate in vito (Fridowich, I., J. Biol. Chem., 215, 4053˜4057, 1970). […] The test of inhibiting xanthine oxidase is carried out by the method of H. M. Kalckar (J. Biol. Chem., 167, 429˜443, 1947). The basic principle is xanthine being acted by xanthine oxidase to form uric acid that is quantitative analyzed by photometric method. By the amount of determined uric acid, is calculated the degree of inhibiting effect for the activity of xanthine oxidase.
The testing process is, adding a final concentration of 0.01 u/ml of xanthine oxidase in 1 cm cell of photometric apparatus, and adding 0.05M (pH=7.4) of phosphoric acid buffer or inhabitant The reaction time is counted from the point at adding xanthene's to a final concentration reaching 5×10^−5M. For reducing the error arose by absorption of liquid in photometric analysis, the compound of xanthine oxidase, xanthine and drug are boiled for the reference. UV selected at 295 nm, data are recorded at an interval of 30 seconds for 2 minutes. The unit of activity change of xanthine oxidase is 0.001M/min. Calculate the inhibiting rate for each addition amount of drug. To use drug concentration (M) as a function of inhibiting rate (%), and to trace the data on a log scale paper, the 50% depression rate of the oxidase (IC50) could be determined by regression line method.

SMILES | inhibition at 100000 µg/mL [2] [%] | Histamine Releasing rate (%) [2] [%] | inhibition in vivo at 1 mg/ear [3] [%] | IC50 (xanthine oxidase) [nM] | other results
O=C(O)CC(O)(CC(=O)O)C(=O)O [Citric acid] | 100 | 8.7 | 100 | 100 | pH value of saliva ([1]; testing time 0 minute): 6.8; pH value of saliva ([1]; testing time 20 minute): 6.45; pH value of saliva ([1]; testing time 60 minute): 6.26; pH value of saliva ([1]; testing time 90 minute): 6.6; pH value of saliva ([1]; testing time 120 minute): 6.8
CN(C)CCOC(c1ccccc1)c1ccccc1 [Diphenhydramine hydrochloride, reference compound] | 32.1 | 64.7 | 20 |  | 
O=C1O[C@H](CO)[C@@H](O)[C@H](O)[C@H]1O [gluconolactone] | 100 | 8.9 | 97 |  | 
CC(O)C(=O)O (stereo not drawn) [Lactic acid] | 100 | 8.9 | 97 |  | 
CC1(C)[C@@H](O[C@H]2O[C@H](C(=O)[O-])[C@@H](O)[C@H](O)[C@H]2O[C@@H]2O[C@H](C(=O)[O-])[C@@H](O)[C@H](O)[C@H]2O)CC[C@]2(C)[C@H]3C(=O)C=C4[C@@H]5C[C@@](C)(C(=O)[O-])CC[C@]5(C)CC[C@@]4(C)[C@]3(C)CC[C@@H]12.[Na+].[Na+].[Na+] [Trisodium glycyrrhizinate, reference compound] |  | 65.5 |  |  | Depression rate (%) [2]: 30.9%
CCCCCCC(O)C(=O)O (stereo not drawn) [α-hydroxy octanoic acid] | 100 | 9.0 | 94 |  | 
O=C(O)CO [α-hydroxy ethanoic acid] |  | 9.0 |  |  | Depression rate (%) [2]: 100%; Depression rate (%) [3]: 98%
Nc1nc2ncc(CNc3ccc(C(=O)N[C@@H](CCC(=O)O)C(=O)O)cc3)nc2c(=O)[nH]1 [Folic acid, reference compound] |  |  |  | 662 | 
O=C(O)CC(O)C(=O)O (stereo not drawn) [Malic acid] | 100 | 9.0 | 96 | 112 | 
O=C(O)C(O)C(O)C(=O)O (stereo not drawn) [Tartaric acid] | 100 | 8.9 | 97 | 102 | 
O=C(O)/C=C/C(=O)O [Fumaric acid] | 100 | 8.9 | 98 | 101 | 
